Measurements: publication PMC12514245, “Impaired migration and lung invasion of human melanoma by a novel small molecule targeting the transmembrane domain of death receptor p75^NTR” (EMBO Molecular Medicine, 2025)
“And” between values parts separate entries of the source, which are not always exact repeats. Equal entries are not always repeated.

Experiments:
A875 NT cells [1] = assay: Boyden chamber chemotaxis/invasion assay, A875 NT; assay type: cell-based, human; details: 5μM Q_VD_pOH; for Fold change (invading cells), Mean: N=3
Procedure: For Boyden chamber assay, Corning® BioCoat™ Matrigel® Invasion Chambers 8.0 µm PET Membrane were used (cat. no. 354480). A875 NT or WM115 cells were serum-starved for 16 h and then seeded at 60,000 cells per well in serum-free media under different conditions, including DMSO (vehicle) or small molecules Div17E5 or Np75-4A22 at different concentrations to the top chamber of the Matrigel-coated trans-well chamber. The pan-caspase inhibitor Q_VD_poH (at 5 µM) was also introduced in the top chamber in some experiments. Two different chemoattractants, NGF (at 50 ng/ml or 100 ng/ml as indicated) or 10% FBS were added to the bottom chamber. Assays were carried out for 8 h after which filters were fixed in 4% PFA and stained with DAPI. Cells that had remained on the top of the filter were gently scrapped away with a cotton tip. The filter lower side was imaged on an inverted fluorescence microscope and counted using ImageJ software (NIH).

A875 NT cells [2] = assay: Wound healing cell motility assay, A875 NT; assay type: cell-based, human; details: for Wound area, Mean / Wound area, n1-n3: 5μM Q_VD_poH; for Wound area, Mean: N=3; for Wound area (Fold), Mean / Wound area (Fold), individual replicates: 10uM
Procedure: (§1) For wound healing assay, cells were grown until confluency and subjected to a wound across the cell mono-layer. Cells were then incubated with serum-free media either with DMSO or a small molecule (with or without 5 µM Q_VD_poH) and imaged at specific time-points. Cell migration is reflected as fold change in wound area over time.

A875 melanoma cells (NT) = assay: Cleaved PARP western blot (apoptosis), A875 NT; assay type: cell-based, human; details: Q-VD-pOH 5 µM; Div17E5 10 µM
Procedure: One of the main biological readouts of p75^NTR activity in response to neurotrophins is the induction of caspase-mediated apoptotic cell death (Underwood and Coulson, [2008]; Friedman, [2010]; Ibáñez and Simi, [2012]).
COS7, A875 and WM115 cell lines were cultured under standard conditions in DMEM supplemented with 10% fetal calf serum, 100 units/ml penicillin, […] streptomycin, and 2.5 mM glutamine. All cells were authenticated and tested for mycoplasma contamination. A875-NT (control) and A875 shp75 (knockdown) cell lines were described previously (Goh et al, [2018]).

A875 shp75 cells = assay: Wound healing cell motility assay, A875 shp75; assay type: cell-based, human; details: 5μM Q_VD_poH; for Wound area, Mean: N=3
Procedure: as §1

AS19 E. coli = assay: Bacterial toxicity (OD630) in the AraTM assay; assay type: cell-based; details: compared with Div17E5
p75^NTR TMD = target: T1, p75^NTR TMD (Homo sapiens, UniProt P08138); assay: AraTM assay, wild-type p75NTR TMD (GFP/OD630); assay type: cell-based; details: structure-activity comparison
T1 sequence (P08138 250-275 limits assumed): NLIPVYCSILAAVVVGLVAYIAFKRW

**Q.** What does the source list for `CC(C)[C@H](NC(=O)c1ccc2ccccc2n1)C(=O)N[C@@H](CC(=O)O)C(=O)COc1c(F)cccc1F` [Q-VD-pOH, reference compound]?
**A.** Fold change (invading cells), n1-n3 (A875 NT cells [1]; With NGF): 2.27 Fold and 1.89 Fold and 2.17 Fold; Fold change (invading cells), Mean (A875 NT cells [1]; With NGF): 2.11 Fold; Fold change (invading cells), n1-n3 (A875 NT cells [1]; without NGF): 1.22 Fold and 1.02 Fold and 1.42 Fold; Fold change (invading cells), Mean (A875 NT cells [1]; without NGF): 1.22 Fold; rescue of Div17E5 effect on cell motility by caspase inhibitor (A875 NT cells [2]): could not be rescued; Wound area, Mean (A875 NT cells [2]; 0 hours): 1.000 Fold; Wound area, n1-n3 (A875 NT cells [2]; 3 hours): 0.912 Fold and 1.045 Fold and 0.955 Fold; Wound area, Mean (A875 NT cells [2]; 3 hours): 0.971 Fold; Wound area, n1-n3 (A875 NT cells [2]; 6 hours): 0.873 Fold and 1.010 Fold and 0.935 Fold; Wound area, Mean (A875 NT cells [2]; 6 hours): 0.939 Fold; Wound area, n1-n3 (A875 NT cells [2]; 9 hours): 0.814 Fold and 0.952 Fold and 0.859 Fold; Wound area, Mean (A875 NT cells [2]; 9 hours): 0.875 Fold; Wound area, n1-n3 (A875 NT cells [2]; 12 hours): 0.792 Fold and 0.920 Fold and 0.820 Fold; Wound area, Mean (A875 NT cells [2]; 12 hours): 0.844 Fold; Wound area, n1-n3 (A875 NT cells [2]; 15 hours): 0.758 Fold and 0.880 Fold and 0.797 Fold; Wound area, Mean (A875 NT cells [2]; 15 hours): 0.811 Fold; Wound area, n1-n3 (A875 NT cells [2]; 18 hours): 0.732 Fold and 0.836 Fold and 0.772 Fold; Wound area, Mean (A875 NT cells [2]; 18 hours): 0.780 Fold; Wound area, n1-n3 (A875 NT cells [2]; 21 hours): 0.724 Fold and 0.832 Fold and 0.756 Fold; Wound area, Mean (A875 NT cells [2]; 21 hours): 0.771 Fold; Wound area, n1-n3 (A875 NT cells [2]; 24 hours): 0.707 Fold and 0.800 Fold and 0.730 Fold; Wound area, Mean (A875 NT cells [2]; 24 hours): 0.746 Fold; block of Div17E5-induced apoptosis (cleaved PARP) (A875 melanoma cells (NT)): could be blocked; Wound area, n1-n3 (A875 shp75 cells; 0 hours): 0.942 Fold and 1.051 Fold and 1.006 Fold; Wound area, Mean (A875 shp75 cells; 0 hours): 1.000 Fold; Wound area, n1-n3 (A875 shp75 cells; 3 hours): 0.980 Fold and 1.009 Fold and 0.979 Fold; Wound area, Mean (A875 shp75 cells; 3 hours): 0.989 Fold; Wound area, n1-n3 (A875 shp75 cells; 6 hours): 0.990 Fold and 1.014 Fold and 0.952 Fold; Wound area, Mean (A875 shp75 cells; 6 hours): 0.985 Fold; Wound area, n1-n3 (A875 shp75 cells; 9 hours): 0.935 Fold and 0.937 Fold and 0.886 Fold; Wound area, Mean (A875 shp75 cells; 9 hours): 0.919 Fold; Wound area, n1-n3 (A875 shp75 cells; 12 hours): 0.939 Fold and 0.913 Fold and 0.875 Fold; Wound area, Mean (A875 shp75 cells; 12 hours): 0.909 Fold; Wound area, n1-n3 (A875 shp75 cells; 15 hours): 0.891 Fold and 0.870 Fold and 0.844 Fold; Wound area, Mean (A875 shp75 cells; 15 hours): 0.869 Fold; Wound area, n1-n3 (A875 shp75 cells; 18 hours): 0.856 Fold and 0.835 Fold and 0.800 Fold; Wound area, Mean (A875 shp75 cells; 18 hours): 0.830 Fold; Wound area, n1-n3 (A875 shp75 cells; 21 hours): 0.849 Fold and 0.778 Fold and 0.767 Fold; Wound area, Mean (A875 shp75 cells; 21 hours): 0.798 Fold; Wound area, n1-n3 (A875 shp75 cells; 24 hours): 0.815 Fold and 0.772 Fold and 0.761 Fold; Wound area, Mean (A875 shp75 cells; 24 hours): 0.783 Fold

**Q.** How did the “wound healing assay, comparison of Div17E5, MS_18 and MS_63” value (A875 NT cells [2]; 10 µM) turn out when `COc1ccc(-c2cncc(Nc3ccc([N+](=O)[O-])cc3)n2)cc1` [MS_18] was run?
**A.** lower potency

**Q.** What about the “Wound area (Fold), Mean” value (A875 NT cells [2]; 0 hours) of the same compound?
**A.** 1 Fold

**Q.** And the “Wound area (Fold), individual replicates” value (A875 NT cells [2]; 0 hours)?
**A.** 1.000 Fold

**Q.** What about the “Wound area (Fold), Mean” value (A875 NT cells [2]; 3 hours) of the same compound?
**A.** 0.941 Fold

**Q.** What about the “Wound area (Fold), individual replicates” value (A875 NT cells [2]; 3 hours) of the same compound?
**A.** 0.922 Fold and 0.959 Fold

**Q.** And the “Wound area (Fold), Mean” value (A875 NT cells [2]; 6 hours)?
**A.** 0.91 Fold

**Q.** What about the “Wound area (Fold), individual replicates” value (A875 NT cells [2]; 6 hours) of the same compound?
**A.** 0.89 Fold and 0.929 Fold

**Q.** What about the “Wound area (Fold), Mean” value (A875 NT cells [2]; 9 hours) of the same compound?
**A.** 0.867 Fold

**Q.** What about the “Wound area (Fold), individual replicates” value (A875 NT cells [2]; 9 hours) of the same compound?
**A.** 0.834 Fold and 0.901 Fold

**Q.** And the “Wound area (Fold), Mean” value (A875 NT cells [2]; 12 hours)?
**A.** 0.851 Fold

**Q.** What about the “Wound area (Fold), individual replicates” value (A875 NT cells [2]; 12 hours) of the same compound?
**A.** 0.803 Fold and 0.899 Fold

**Q.** And the “Wound area (Fold), Mean” value (A875 NT cells [2]; 15 hours)?
**A.** 0.791 Fold

**Q.** And the “Wound area (Fold), individual replicates” value (A875 NT cells [2]; 15 hours)?
**A.** 0.728 Fold and 0.855 Fold

**Q.** And the “Wound area (Fold), Mean” value (A875 NT cells [2]; 18 hours)?
**A.** 0.817 Fold

**Q.** What about the “Wound area (Fold), individual replicates” value (A875 NT cells [2]; 18 hours) of the same compound?
**A.** 0.79 Fold and 0.845 Fold

**Q.** And the “Wound area (Fold), Mean” value (A875 NT cells [2]; 21 hours)?
**A.** 0.775 Fold

**Q.** What about the “Wound area (Fold), individual replicates” value (A875 NT cells [2]; 21 hours) of the same compound?
**A.** 0.722 Fold and 0.827 Fold

**Q.** And the “Wound area (Fold), Mean” value (A875 NT cells [2]; 24 hours)?
**A.** 0.737 Fold

**Q.** And the “Wound area (Fold), individual replicates” value (A875 NT cells [2]; 24 hours)?
**A.** 0.692 Fold and 0.783 Fold

**Q.** And the “bacterial toxicity, as assessed by OD630” value (AS19 E. coli)?
**A.** somewhat lower bacterial toxicity

**Q.** And the “activity in the AraTM assay” value (p75^NTR TMD)?
**A.** MS_18 more potent than Np75-3A01, -3A02
